{"source": "patent US20050244959A1", "about": "“Methods for inducing active hepatocytes proliferation, kits using such methods and uses of said kits” (priority 2004, published 2005)", "key": {"[1]": {"test_system": "rat hepatocytes in coculture", "test": "Inhibition of extracellular matrix remodeling: hepatocyte DNA synthesis in coculture", "assay_type": "cell-based", "settings": "phenanthroline 1 μM added to cocultures treated with EGF for 24 h and then with TNFα", "procedure": "(§1) Hepatocyte DNA synthesis is measured by using BrdU (bromodeoxyuridine) labeling. BrdU incorporation in DNA is detected by immunohistochemistry using the Cell Proliferation Kit (Amersham). The number of labeled hepatocytes is determined (5 fields per dish) in order to calculate the percentage of BrdU incorporation.\n7 day-old cocultures are stimulated with EGF and then with TNFα for 24 h periods. Factors are added in a FCS-free medium. Inhibition of extracellular matrix degradation is induced with 1,10-Phenanthroline monohydrate (Sigma), a chelator of metal ions which inhibits the metalloproteinase activity. This compound is soluble in dimethylsulfoxyde and is used at 1 μM."}, "extracellular matrix": {"test_system": "extracellular matrix", "test": "Extracellular matrix deposition analysis (reticulin staining) in coculture", "assay_type": "cell-based, rat", "settings": "7 day-old cocultures", "procedure": "Matrix fibers are visualized in cocultures fixed with a mixture of 4% paraformaldehyde and 2.5% glutaraldehyde in 0.1 M cacodylate buffer (pH 7.4) for 15 min at 4° C. Then the reticulin staining by silver impregnation of extracellular matrix is carried out according to the method of Gordon and Sweets and applied to coculture (Exp Cell Res 1984; J Cell Biol 1991). Matrix components are analysed by immunostaining using antibodies against fibronectin, collagen I, collagen III)"}, "human hepatocytes": {"test_system": "human hepatocytes", "test": "DNA synthesis by BrdU incorporation in pure culture of human hepatocytes", "assay_type": "cell-based", "settings": "stimulated 24 h after seeding for 48 h", "procedure": "Freshly isolated hepatocytes are seeded on plastic dishes at 5×10^4 cells per cm2 in a William's E medium (Eurobio) supplemented with 2 mM L-glutamine (Gibco), 0,1% bovine serum albumin (BSA, Sigma), 100 μg/ml streptomycin, 100 Ul/ml penicillin (Eurobio), 50 μg/ml gentamycine (Sigma), 5 μg/ml bovine insulin (Sigma), and 10% fetal calf serum (HyClone).\nTwenty four hours after seeding, human hepatocytes are stimulated with recombinant human TNFα (Promokine, 10 ng/ml) and recombinant human EGF (Promega, 50 ng/ml). These factors are added in William's E medium (Eurobio) supplemented with 2 mM L-glutamine (Gibco), 0,1% bovine serum albumin (BSA, Sigma), 100 μg/ml streptomycin, 100 Ul/ml penicillin (Eurobio), 50 μg/ml gentamycine (Sigma), 5 μg/ml bovine insulin (Sigma), 1.4×10^-6 M hydrocortisone hemisuccinate (Roussel), 10% fetal calf serum. This medium is renewed every day and stimulation lasts at least 2 days.\nBrdU is incubated in medium during the last 24 h of treatment. Then pure cultures are fixed with a mixture of 90% ethanol, 5% acid acetic and 5% water for 20 min at 4° C. BrdU incorporation in DNA is detected by immunohistochemistry using the Cell Proliferation kit (Amersham). Next, cytoplasm and nuclei are stained in blue with Hemalun (Merck). The numbers of labeled hepatocytes are determined (5 fields per dish) in order to calculate percentage of BrdU incorporation."}, "[2]": {"test_system": "cyclin D1, EF21, cyclin E, Cdk1", "test": "Expression of cell cycle markers in coculture", "assay_type": "cell-based, rat", "settings": "successive 24 h treatments", "procedure": "A test is provided to analyze the mechanism of cell cycle blockage or progression (early G1, Late G1, S and M) induced by drugs by studying the expression of cell cycle markers which sign different steps of cell cycle (cyclin D1, E2 F1, Cdk2, cyclin E, Cdk1, cyclin B, PCNA, alpha tubulin). Successive 24 h treatments of cocultures by molecules added alone or in combination with EGF or TNFα are used to determine the effect of each molecule.\nCells are arrested at each time (24 and 48 h) and protein extracts are prepared and separated in SDS-polyacrylamide gel. Cell cycle markers are analyzed by western blot using corresponding antibodies."}, "[3]": {"test_system": "rat hepatocytes in coculture with rat biliary epithelial cells (RLEC)", "test": "Hepatocyte DNA synthesis by BrdU labeling in rat hepatocyte/RLEC coculture", "assay_type": "cell-based", "procedure": "Freshly isolated hepatocytes are seeded on plastic dishes at 7×10^4 cells per cm2 in a mixture of 75% minimal essential medium and 25% 199 medium (Eurobio), supplemented with 2 mM L-glutamine, 0,1% bovine serum albumin (BSA, Sigma), 100 μg/ml streptomycin, 100 Ul/ml penicillin, 5 μg/ml bovine insulin (Sigma), 1.4×10^-6 M hydrocortisone hemisuccinate (Roussel) and 10% fetal calf serum (Hyclone). This medium is called “basal medium”.\nAfter cell adhesion, approximately 4 hours after seeding, RLEC, previously trypsinized, are added on spread hepatocytes at 2×10^5 cells per cm2 in basal medium.\nTwenty four hours later, the medium is removed and replaced by a medium supplemented in 7×10^-5 M hydrocortisone hemisuccinate, which promotes hepatocyte differentiation and survival. This medium is renewed everyday for 4 days. Then, the concentration of hydrocortisone hemisuccinate is decreased to 7×10^-6 M for 2 days.\n7 day-old cocultures are stimulated with human recombinant EGF (50 ng/ml, Promega) and human recombinant TNF-alpha (10 ng/ml, Promokine) in basal medium for 3 to 10 days. The medium is renewed everyday. As control, cocultures exposed to TNFα alone or EGF are used.\nTo induce several rounds of hepatocyte proliferation, 7 day-old cocultures are stimulated with human recombinant EGF (50 ng/ml) and human recombinant TNFα (10 ng/ml) in basal medium, for 10 days. Then, a pause in stimulation is performed for 4 days, during which cells are maintained in medium supplemented in 7×10^-6 M hydrocortisone hemisuccinate. Next, cocultures are treated with EGF and TNFα in basal medium for 10 days.\nas §1"}, "pro-MMP9": {"test_system": "pro-MMP9", "test": "Gelatin zymography of coculture supernatant", "assay_type": "cell-based, rat", "settings": "FCS-free medium, 24 h", "procedure": "7 day-old cocultures are stimulated with different combinations of TNFα and/or EGF in a FCS-free medium for 24 h. Twenty μl of supernatant are electrophoresed under nonreducing conditions on 12% SDS-polyacrylamide gel containing 0,1% bovine skin gelatin (Sigma) as substrate. After electrophoresis, the gel is washed twice with 2.5% Triton X-100 for 10 min and twice with water for 20 min. After incubation overnight at 37° C. in reaction buffer (50 mM Tris-HCL, pH 8; 5 mM CaCl2; 5 μM ZnCl2), the gel is stained with Coomassie Brillant Blue and destained. Clear zones in blue background indicate the presence of metalloproteinase pro-MMP9 activity; 5% FCS is used as positive control."}}, "data": [{"molecule": "O.c1cnc2c(c1)ccc1cccnc12", "note": "[phenanthroline, 1,10-Phenanthroline monohydrate]", "values": [{"measurement": "DNA synthesis", "setting": "[1]", "value": "strongly decreased"}]}, {"molecule": "EGF: human recombinant EGF (50 ng/ml, Promega), growth factor", "values": [{"measurement": "extracellular matrix (ECM) deposition", "setting": "extracellular matrix", "value": "very abundant"}, {"measurement": "hepatocytes with DNA synthesis (S phase entry)", "setting": "human hepatocytes", "value": 8, "unit": "%"}, {"measurement": "effect on hepatocyte cell cycle progression", "setting": "[2]", "value": "promotes hepatocyte cell cycle progression to late G1"}, {"measurement": "BrdU incorporation under permanent exposure", "setting": "[3]; continued after a first 10 day-stimulation with TNFα/EGF, from day 10", "value": "gradually decreases"}, {"measurement": "Pro-MMP9 (92 Kda) expression by zymography", "setting": "pro-MMP9", "value": "not detected"}]}, {"molecule": "TGFα: transforming growth factor alpha (20 ng/ml), replacing EGF", "values": [{"measurement": "DNA synthesis when EGF is replaced by another growth factor", "setting": "[3]; with TNFα, HGF 25 ng/ml, TGFα 20 ng/ml, compared with TNFα/EGF", "value": "highest DNA synthesis"}]}, {"molecule": "TNFα", "values": [{"measurement": "extracellular matrix (ECM) deposition", "setting": "extracellular matrix", "value": "very sparse"}, {"measurement": "effect on hepatocyte cell cycle progression", "setting": "[2]", "value": "allows S entry through Cdk1 induction"}, {"measurement": "Pro-MMP9 (92 Kda) expression by zymography", "setting": "pro-MMP9", "value": "expressed"}]}, {"molecule": "interleukin 6: cytokine known to modulate extracellular matrix remodeling, used at 5 ng/ml", "values": [{"measurement": "hepatocyte response to growth factors (DNA replication)", "setting": "[3]; coculture, 5 ng/ml", "value": "allow hepatocytes to respond to growth factors"}]}]}
